Data from ChEMBL document CHEMBL4020736, “Synthesis and biological evaluation of novel selective androgen receptor modulators (SARMs) Part III: Discovery of 4-(5-oxopyrrolidine-1-yl)benzonitrile derivative 2f as a clinical candidate” (Bioorg Med Chem, 2017).

Experiments:
[1] = Clearance in dog liver microsomes at 1 uM after 60 mins in presence of NADPH by UPLC analysis; type: ADME, Canis lupus familiaris, microsome; settings: read-out: CLH
[2] = Clearance in mouse liver microsomes at 1 uM after 60 mins in presence of NADPH by UPLC analysis; type: ADME, microsome; settings: read-out: CLH
[3] = Clearance in monkey liver microsomes at 1 uM after 60 mins in presence of NADPH by UPLC analysis; type: ADME, Macaca mulatta, microsome; settings: rhesus monkey, read-out: CLH
Rattus norvegicus [4] = test: Androgenic activity in castrated CD(SD)IGS rat assessed as prostate weight at 2.5 mg/kg, po bid for 4 days co-treated with testosterone propionate by Harshberger assay relative to control; type: organism-based; settings: in vivo, 96 h
Rattus norvegicus [5] = test: Induction of sexual behavior in castrated CD(SD)IGS rat assessed as pseudopregnancy rate at 0.5 mg/kg, po qd for 21 days measured on day 18 to 21 relative to control; type: functional
Rattus norvegicus [6] = test: Induction of sexual behavior in castrated CD(SD)IGS rat assessed as pseudopregnancy rate at 1.5 mg/kg, po qd for 21 days measured on day 18 to 21 relative to control; type: functional
Rattus norvegicus [7] = test: Induction of sexual behavior in castrated CD(SD)IGS rat assessed as pseudopregnancy rate at 5 mg/kg, po qd for 21 days measured on day 18 to 21 relative to control; type: functional
[8] = Plasma concentration in Crl:CD(SD) rat at 0.1 mg/kg, iv after 5 mins by LC-MS/MS analysis; type: ADME, organism-based
[9] = Plasma concentration in cynomolgus monkey at 0.1 mg/kg, iv after 5 mins by LC-MS/MS analysis; type: ADME, organism-based, Macaca fascicularis
[10] = AUC (0 to 24 hrs) in Crl:CD(SD) rat at 0.1 mg/kg, iv by LC-MS/MS analysis; type: ADME, organism-based; design: dose 0.1 mg/kg, time < 24 hr, route intravenous; settings: in vivo
[11] = MRT in Beagle dog at 0.1 mg/kg, iv by LC-MS/MS analysis; type: ADME, organism-based, Canis lupus familiaris; settings: in vivo
[12] = MRT in cynomolgus monkey at 0.1 mg/kg, iv by LC-MS/MS analysis; type: ADME, organism-based, Macaca fascicularis; settings: in vivo
[13] = Volume of distribution at steady state in Beagle dog at 0.1 mg/kg, iv by LC-MS/MS analysis; type: ADME, organism-based, Canis lupus familiaris; settings: in vivo, read-out: Vdss
[14] = Cmax in Beagle dog at 1 mg/kg, po by LC-MS/MS analysis; type: ADME, organism-based, Canis lupus familiaris; design: dose 1 mg/kg, route oral; settings: in vivo
[15] = Tmax in cynomolgus monkey at 1 mg/kg, po by LC-MS/MS analysis; type: ADME, organism-based, Macaca fascicularis; settings: in vivo
[16] = MRT in Crl:CD(SD) rat at 1 mg/kg, po by LC-MS/MS analysis; type: ADME, organism-based; settings: in vivo
[17] = Oral bioavailability in Crl:CD(SD) rat at 1 mg/kg by LC-MS/MS analysis; type: ADME, organism-based; settings: in vivo
[18] = Oral bioavailability in Beagle dog at 1 mg/kg by LC-MS/MS analysis; type: ADME, organism-based, Canis lupus familiaris; settings: in vivo
[19] = Oral bioavailability in cynomolgus monkey at 1 mg/kg by LC-MS/MS analysis; type: ADME, organism-based, Macaca fascicularis; settings: in vivo
Glucocorticoid receptor = target: T1, Glucocorticoid receptor (Homo sapiens, UniProt P04150); test: Binding affinity to GR (unknown origin)
T1 sequence (P04150 whole entry): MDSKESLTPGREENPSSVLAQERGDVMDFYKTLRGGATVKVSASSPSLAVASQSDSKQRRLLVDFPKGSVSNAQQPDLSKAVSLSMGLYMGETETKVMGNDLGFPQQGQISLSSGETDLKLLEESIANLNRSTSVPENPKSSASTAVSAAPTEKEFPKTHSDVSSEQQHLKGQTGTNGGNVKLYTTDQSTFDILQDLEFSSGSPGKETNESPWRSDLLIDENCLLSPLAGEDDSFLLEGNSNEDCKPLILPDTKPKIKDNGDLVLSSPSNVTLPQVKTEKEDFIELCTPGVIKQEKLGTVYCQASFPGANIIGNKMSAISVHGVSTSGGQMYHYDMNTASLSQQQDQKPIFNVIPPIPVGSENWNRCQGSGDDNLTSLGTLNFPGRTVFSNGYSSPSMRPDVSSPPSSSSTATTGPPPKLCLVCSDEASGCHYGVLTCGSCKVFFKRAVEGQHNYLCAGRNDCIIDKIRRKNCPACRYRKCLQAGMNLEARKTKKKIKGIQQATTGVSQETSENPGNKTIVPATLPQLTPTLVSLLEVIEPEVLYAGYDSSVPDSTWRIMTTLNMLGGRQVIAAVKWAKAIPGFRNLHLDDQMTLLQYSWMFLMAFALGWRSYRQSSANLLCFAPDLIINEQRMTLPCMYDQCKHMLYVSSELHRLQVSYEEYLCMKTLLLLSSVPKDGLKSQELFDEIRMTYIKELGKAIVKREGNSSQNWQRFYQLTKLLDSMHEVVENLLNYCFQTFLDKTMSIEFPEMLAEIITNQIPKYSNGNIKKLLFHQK

Progesterone receptor = target: T2, Progesterone receptor (Homo sapiens, UniProt P06401); test: Agonist activity at PR (unknown origin) by luciferase reporter gene assay
T2 sequence (P06401 whole entry): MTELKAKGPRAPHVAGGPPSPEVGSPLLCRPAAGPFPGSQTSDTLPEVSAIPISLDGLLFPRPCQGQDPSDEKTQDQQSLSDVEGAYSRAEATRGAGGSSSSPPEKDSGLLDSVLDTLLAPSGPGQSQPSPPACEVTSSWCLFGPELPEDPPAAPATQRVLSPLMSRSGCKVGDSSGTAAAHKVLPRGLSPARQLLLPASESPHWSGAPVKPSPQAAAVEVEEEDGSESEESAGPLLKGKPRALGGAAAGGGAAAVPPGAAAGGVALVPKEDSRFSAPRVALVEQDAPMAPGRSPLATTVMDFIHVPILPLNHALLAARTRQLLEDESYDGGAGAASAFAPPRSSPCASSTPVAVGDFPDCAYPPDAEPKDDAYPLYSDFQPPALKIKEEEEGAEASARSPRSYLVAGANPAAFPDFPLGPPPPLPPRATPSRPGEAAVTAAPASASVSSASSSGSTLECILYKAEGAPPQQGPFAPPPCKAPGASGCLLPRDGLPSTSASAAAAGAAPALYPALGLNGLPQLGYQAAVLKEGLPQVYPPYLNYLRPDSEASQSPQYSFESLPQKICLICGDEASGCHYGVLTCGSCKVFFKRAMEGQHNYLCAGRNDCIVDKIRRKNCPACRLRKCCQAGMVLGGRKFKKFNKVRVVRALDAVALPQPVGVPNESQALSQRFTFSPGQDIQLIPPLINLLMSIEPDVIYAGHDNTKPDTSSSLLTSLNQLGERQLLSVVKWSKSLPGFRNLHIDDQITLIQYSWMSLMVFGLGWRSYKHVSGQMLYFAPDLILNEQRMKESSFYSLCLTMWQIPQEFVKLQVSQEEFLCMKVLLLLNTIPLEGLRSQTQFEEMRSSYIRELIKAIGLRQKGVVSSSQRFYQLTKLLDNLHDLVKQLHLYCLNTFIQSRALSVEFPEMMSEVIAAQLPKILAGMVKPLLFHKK

Rhesus monkey = test: Toxicity in monkey assessed as convulsion administered via oral gavage; design: species or system Macaca mulatta; settings: in vivo
Canis familiaris = test: Toxicity in iv dosed Beagle dog assessed as effect on heart rate administered via single dose; type: organism-based, Canis lupus familiaris; settings: in vivo
Rattus norvegicus [20] = test: Toxicity in rat administered via oral gavage; settings: in vivo

## CC[C@H]1[C@@H](O)CC(=O)N1c1ccc(C#N)c(C(F)(F)F)c1
[1]
  microsomal CLint at 1 µM: 4 µL/min/mg
[2]
  microsomal CLint at 1 µM: 3 µL/min/mg
[3]
  microsomal CLint at 1 µM: 5 µL/min/mg
Rattus norvegicus [4]
  Activity: 106%
Rattus norvegicus [5]
  Activity: 100%
Rattus norvegicus [6]
  Activity: 100%
Rattus norvegicus [7]
  Activity: 86%
[8]
  concentration at 5 min: 70.8 ng/mL
[9]
  concentration at 5 min: 72.9 ng/mL
[10]
  AUC(0-t) at 24 h: 108 ng·h/mL
[11]
  MRT: 4.84 h
[12]
  MRT: 1.72 h
[13]
  Vd: 3.3 L/kg
[14]
  Cmax: 265 ng/mL
[15]
  Tmax: 1.67 h
[16]
  MRT: 3.06 h
[17]
  bioavailability: 74.6%
[18]
  bioavailability: 76.6%
[19]
  bioavailability: 48.1%
Glucocorticoid receptor
  IC50: > 10 µM
Progesterone receptor
  EC50: > 10 µM
Rhesus monkey
  Activity: Toxic
Canis familiaris
  Activity: Non-Toxic
Rattus norvegicus [20]
  Activity: Non-Toxic
